Reference: US20190092761A1, “Methods and Compositions for Inhibition of Bromodomain and Extratermial Proteins” (Convergene LLC, priority 2014, published 2019)
pKd: −log10 of the molar value.

Target: T1, BRD4 bromodomains (Homo sapiens, UniProt O60885)
T1 construct: fused on or other part: T7 phage capsid protein (fusion for phage display)
Assay: BROMOscan bromodomain binding assay
Conditions: Kd classes; BRD4 bromodomains displayed on T7 phage, competition with acetylated peptide ligand, 11 concentrations 0 to 10 μM; read-out: BROMOscan Relative Activity
Procedure: Bromodomain assays were conducted to measure interactions between certain compounds and bromodomains. In order to measure compounds' direct activity against BRD4, dissociation constants ([…]) of the bromodomain inhibitors of the present invention were obtained using a biophysical binding assay, BROMOscan℠ (DiscoveRx, San Diego, Calif.), a modified phage-display system originally developed for kinases (Nat Biotechnol. 2005 March; 23(3):329-36).
The assays were conducted according to BROMOscan protocol from Discover Rx. Briefly, BRD4 bromodomains expressed as a fusion capsid protein of T7 phage were bound to acetylated peptide ligand on a solid phase and competition bindings were performed. T7 phage strains displaying bromodomains were grown in parallel in 24-well blocks in an E. coli host derived from the BL21 strain. E. coli were grown to log-phase and infected with T7 phage from a frozen stock (multiplicity of infection=0.4) and incubated with shaking at 32° C. until lysis (90-150 minutes). The lysates were centrifuged (5,000×g) and filtered (0.2 μm) to remove cell debris. Streptavidin-coated magnetic beads were treated with biotinylated small molecule or acetylated peptide ligands for 30 minutes at room temperature to generate affinity resins for bromodomain assays. The liganded beads were blocked with excess biotin and washed with blocking buffer (SeaBlock (Pierce), 1% BSA, 0.05% Tween 20, 1 mM DTT) to remove unbound ligand and to reduce non-specific phage binding. Binding reactions were assembled by combining bromodomains, liganded affinity beads, and test compounds in 1× binding buffer (17% SeaBlock, 0.33×PBS, 0.04% Tween 20, 0.02% BSA, 0.004% Sodium azide, 7.4 mM DTT). Test compounds were prepared as 1000× stocks in 100% DMSO and subsequently diluted 1:10 in monoethylene glycol (MEG) to create stocks at 100× the screening concentration (resulting stock solution is 10% DMSO/90% MEG). The compounds were then diluted directly into the assays such that the final concentration of DMSO and MEG were 0.1% and 0.9%, respectively. All reactions were performed in polystyrene 96-well plates in a final volume of 0.135 ml. The assay plates were incubated at room temperature with shaking for 1 hour and the affinity beads were washed with wash buffer (1×PBS, 0.05% Tween 20). The beads were then re-suspended in elution buffer (1×PBS, 0.05% Tween 20, 2 μM non-biotinylated affinity ligand) and incubated at room temperature with shaking for 30 minutes. The bromodomain concentration in the eluates was measured by qPCR. Data was collected at 11 compound concentrations ranging from 0 to 10 μM. Kd values were then derived from a standard dose-response curve generated with Hill equation (Hill Slope was set to −1) and a non-linear least square fit with the Levenberg-Marquardt algorithm.
Response=Background+Signal−Background/1+(Kd Hill Slope/Dose Hill Slope)
Data is reported in Table 3 as Relative Activity, wherein a Kd of less than 100 nM is denoted by (+++), a Kd of between 100 nM and 1 μM is denoted by (++), and a Kd of 1 μM to greater than 10 μM is denoted by (+).

| Compound | pKd |
| --- | --- |
| Cc1noc(C)c1-c1cc2[nH]c(=O)c(C)c(NNc3ccccc3Cl)c2cc1-c1c(C)noc1C [Example 60] | > 7.00 |
| Cc1noc(C)c1-c1ccc2[nH]c(=O)cc(NCc3ccc(-c4ccccc4)cc3)c2c1 [Example 140] | 6.00 to 7.00 |
| Cc1noc(C)c1-c1ccc2[nH]c(=O)cc(NCc3cccc(C(F)(F)F)c3)c2c1 [Example 120] | 6.00 to 7.00 |
| Cc1noc(C)c1-c1ccc2[nH]c(=O)cc(N[C@H](C)c3ccccc3)c2c1 [Example 173] | > 7.00 |
| COc1cncc(-c2ccc3[nH]c(=O)cc(NCc4cccc(Cl)c4)c3c2)c1 [Example 164, 4-(3-chlorobenzylamino)-6-(5-methoxypyridin-3-yl)quinolin-2(1H)-one] | > 7.00 |
| Cc1noc(C)c1-c1cc2[nH]c(=O)cc(NCc3ccccc3)c2cc1-c1c(C)noc1C [Example 162, 4-(benzylamino)-6,7-bis(3,5-dimethylisoxazol-4-yl)quinolin-2(1H)-one] | > 7.00 |
| Cc1noc(C)c1-c1ccc2[nH]c(=O)cc(NCc3ccccc3F)c2c1 [Example 172] | > 7.00 |
| Cc1noc(C)c1-c1cc2c(NCc3ccccc3)cc(=O)[nH]c2cc1C(=O)N(C)C [Example 160, 4-(benzylamino)-6-(3,5-dimethylisoxazol-4-yl)-N,N-dimethyl-2-oxo-1,2-dihydroquinoline-7-carboxamide] | > 7.00 |
| Cc1noc(C)c1-c1ccc2[nH]c(=O)cc(NN(C)c3ccccc3)c2c1 [Example 5, 6-(3,5-dimethylisoxazol-4-yl)-4-(2-methyl-2-phenylhydrazinyl)-quinolin-2(1H)-one] | > 7.00 |
| O=c1cc(NCc2cccc(Cl)c2)c2cc(-c3ccncc3)ccc2[nH]1 [Example 166] | > 7.00 |
| Cc1noc(C)c1-c1ccc2[nH]c(=O)cc(NCc3ccc(Cl)cc3Cl)c2c1 [Example 128] | 6.00 to 7.00 |
| Cc1noc(C)c1-c1ccc2[nH]c(=O)cc(NCc3ccc(Cl)cc3)c2c1 [Example 132] | 6.00 to 7.00 |
| Cn1cc(-c2ccc3[nH]c(=O)cc(NCc4cccc(Cl)c4)c3c2)cn1 [Example 167, 4-(3-chlorobenzylamino)-6-(1-methyl-1H-pyrazol-4-yl)quinolin-2(1H)-one] | > 7.00 |
| Cc1noc(C)c1-c1ccc2[nH]c(=O)cc(NCC3CCCCC3)c2c1 [Example 144] | 6.00 to 7.00 |
| Cc1noc(C)c1-c1ccc2[nH]c(=O)cc(NCc3cccc(Br)c3)c2c1 [Example 112] | > 7.00 |
| Cc1noc(C)c1-c1ccc2[nH]c(=O)cc(NCc3cccnc3)c2c1 [Example 175] | 6.00 to 7.00 |
| COc1ncccc1-c1ccc2[nH]c(=O)cc(NCc3cccc(Cl)c3)c2c1 [Example 165, 4-(3-chlorobenzylamino)-6-(2-methoxypyridin-3-yl)quinolin-2(1H)-one] | < 6.00 |
| O=c1cc(NCc2cccc(Cl)c2)c2cc(-c3cccnc3)ccc2[nH]1 [Example 163, 4-(3-chlorobenzylamino)-6-(pyridin-3-yl)quinolin-2(1H)-one] | > 7.00 |
| Cc1noc(C)c1-c1ccc2[nH]c(=O)cc(NCc3cc(Cl)cc(Cl)c3)c2c1 [Example 124] | 6.00 to 7.00 |
| COc1cccc(CNc2cc(=O)[nH]c3ccc(-c4c(C)noc4C)cc23)c1 [Example 116] | > 7.00 |
| Cc1noc(C)c1-c1ccc2[nH]c(=O)cc(NN(CC(=O)O)c3ccccc3)c2c1 [Example 6] | > 7.00 |
| Cc1noc(C)c1-c1ccc2[nH]c(=O)cc(NN3CCc4ccccc4C3)c2c1 [Example 1] | > 7.00 |
| Cc1noc(C)c1-c1ccc2[nH]c(=O)cc(NCc3ccccc3)c2c1 [Example 170, 4-(benzylamino)-6-(3,5-dimethylisoxazol-4-yl)quinolin-2(1H)-one] | > 7.00 |
| Cc1noc(C)c1-c1ccc2[nH]c(=O)cc(NCc3cccc(Cl)c3)c2c1 [Example 108] | > 7.00 |
| Cc1noc(C)c1-c1cc2c(NCc3ccccc3)cc(=O)[nH]c2cc1C(N)=O [Example 161, 4-(benzylamino)-6-(3,5-dimethylisoxazol-4-yl)-2-oxo-1,2-dihydroquinoline-7-carboxamide] | > 7.00 |
| COc1ccccc1CNc1cc(=O)[nH]c2ccc(-c3c(C)noc3C)cc12 [Example 171] | > 7.00 |
| CC(=O)N(Nc1cc(=O)[nH]c2ccc(-c3c(C)noc3C)cc12)c1ccccc1 [Example 7] | > 7.00 |
